In patent US9242984B2, “Pyrazolyl derivatives as Syk inhibitors” (Merck Sharp & Dohme Corp., priority 2012, dated 2016):
pIC50: −log10 of the molar value. Where two headings read alike, the source gives them in different places.

Biological target: T1, recombinant human Syk (GST-hSyk fusion protein) (Homo sapiens, UniProt P43405)
T1 construct: purchased Carna Biosciences 08-176
Test: Homogeneous Time-Resolved Fluorescence (HTRF) assay for the recombinant human Syk enzyme
Assay type: biochemical
Conditions: 10-dose titration, 25 μM ATP
Method in brief: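 GST-hSyk (5 pM) preincubated 10 min with compound (0.1% DMSO) in 15 mM Tris-HCl pH 7.5, 2 mM DTT; reaction started with 250 nM biotinylated peptide, 5 mM Mg, 25 μM ATP, 45 min, room temperature. EDTA quench, Eu-anti-phosphotyrosine/SA-APC HTRF read after 30 min; IC50 from 10-dose titration (10 μM–0.508 nM), four-parameter fit.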

[1] = IC50 class, read-out: rhSYK Activity

SMILES | pIC50 [1] | pIC50 (read-out: rhSYK IC50)
Cc1cc(Nc2cc(C(F)(F)F)ccn2)nc(-c2cnn(CC(=O)OC(C)(C)C)c2)c1 [Example 1.30, tert-butyl [4-(4-methyl-6-{[4-(trifluoromethyl)pyridin-2-yl]amino}pyridin-2-yl)-1H-pyrazol-1-yl]acetate] | ≥ 7.00 | 
Cc1cc(Nc2nccc(C(F)(F)F)n2)cc(-c2cnn(CC3(O)CCN(CC(=O)O)CC3)c2)c1 [Example 12.15, (4-hydroxy-4-{[4-(3-methyl-5-{[4-(trifluoromethyl)-pyrimidin-2-yl]amino}-phenyl)-1H-pyrazol-1-yl]methyl}piperidin-1-yl)acetic acid] | ≥ 7.00 | 
Cc1cc(Nc2nccc(C(F)F)n2)cc(-c2cnn(C(C[C@@H](C)O)[C@H](C)O)c2)c1 (stereo in doubt) [Example 2.54, 3-[4-(3-{[4-(difluoromethyl)pyrimidin-2-yl]amino}-5-methylphenyl)-1H-pyrazol-1-yl]hexane-2,5-diol] | ≥ 7.00 | 
Cc1cc(Nc2nccc(C(F)(F)F)n2)cc(-c2cnn(Cc3nnc(C)o3)c2)c1 [Example 3.24, N-(3-methyl-5-{1-[(5-methyl-1,3,4-oxadiazol-2-yl)methyl]-1H-pyrazol-4-yl}phenyl)-4-(trifluoromethyl)pyrimidin-2-amine] | ≥ 7.00 | 
Cc1cc(Nc2nccc(C)n2)cc(-c2cnn(CC3CNC(=O)O3)c2)c1 (centres unmarked) [Example 2.31, 5-[(4-{3-methyl-5-[(4-methylpyrimidin-2-yl)amino]phenyl}-1H-pyrazol-1-yl)methyl]-1,3-oxazolidin-2-one] | ≥ 7.00 | 
Cc1cc(Nc2nccc(C(F)F)n2)cc(-c2cnn(CC3CC(=O)NC34CC4)c2)c1 (centres unmarked) [Example 3.89, 7-{[4-(3-{[4-(difluoromethyl)pyrimidin-2-yl]amino}-5-methylphenyl)-1H-pyrazol-1-yl]methyl}-4-azaspiro[2.4]heptan-5-one] | ≥ 7.00 | 
Cc1cc(Nc2nccc(C(F)(F)F)n2)cc(-c2cnn(C3CCOC3=O)c2)c1 (centres unmarked) [Example 3.17, 3-[4-(3-methyl-5-{[4-(trifluoromethyl)pyrimidin-2-yl]amino}-phenyl)-1H-pyrazol-1-yl]dihydrofuran-2(3h)-one] | ≥ 7.00 | 
Cc1cc(Nc2nccc(C(F)F)n2)cc(-c2cnn(CC(O)(CO)C(F)(F)F)c2)c1 (single isomer, unassigned) [Example 25.1, 2-((4-(3-((4-(Difluoromethyl)pyrimidin-2-yl)amino)-5-methylphenyl)-1H-pyrazol-1-yl)methyl)-3,3,3-trifluoropropane-1,2-diol] | ≥ 7.00 | 8.49
Cc1cc(Nc2nccc(C(F)F)n2)cc(-c2cnn(C[C@H](O)C(N)=O)c2)c1 [Example 16, (2S)-3-[4-(3-{[4-(difluoromethyl)pyrimidin-2-yl]amino}-5-methylphenyl)-1H-pyrazol-1-yl]-2-hydroxypropanamide] | ≥ 7.00 | 8.57
COC(=O)C1CCC(n2cc(-c3cc(C)cc(Nc4nccc(C(F)(F)F)n4)c3)cn2)c2ccccc21 (centres unmarked) [Example 3.52, methyl 4-[4-(3-methyl-5-{[4-(trifluoromethyl)pyrimidin-2-yl]amino}-phenyl)-1H-pyrazol-1-yl]-1,2,3,4-tetrahydronaphthalene-1-carboxylate] | 6.00 to 7.00 | 
Cc1cc(Nc2nccc(C(F)(F)F)n2)cc(-c2cnn(CC3OC(=O)NC3(C)C)c2)c1 (centres unmarked) [Example 3.99, 4,4-dimethyl-5-{[4-(3-methyl-5-{[4-(trifluoromethyl)pyrimidin-2-yl]amino}phenyl)-1H-pyrazol-1-yl]methyl}-1,3-oxazolidin-2-one] | ≥ 7.00 | 
Cc1cc(Nc2nccc(C(F)(F)F)n2)cc(-c2cnn(CC(C)(O)CO)c2)c1 (single isomer, unassigned) [Example 21.2, 2-Methyl-3-(4-(3-methyl-5-((4-(trifluoromethyl)pyrimidin-2-yl)amino)phenyl)-1H-pyrazol-1-yl)propane-1,2-diol] | ≥ 7.00 | 
CC(=O)C(C)n1cc(-c2cc(C)cc(Nc3nccc(C(F)F)n3)c2)cn1 (centres unmarked) [Example 21.3, 3-[4-(3-{[4-(difluoromethyl)pyrimidin-2-yl]amino}-5-methylphenyl)-1H-pyrazol-1-yl]butan-2-one] | ≥ 7.00 | 
Cc1cc(Nc2nccc(C(F)(F)F)n2)cc(-c2cnn(CC(O)COC(C)C)c2)c1 (centres unmarked) [Example 5.7, 1-(1-methylethoxy)-3-[4-(3-methyl-5-{[4-(trifluoro-methyl)pyrimidin-2-yl]amino}-phenyl)-1H-pyrazol-1-yl]propan-2-ol] | ≥ 7.00 | 
Cc1cc(Nc2nccc(C(F)(F)F)n2)cc(-c2cnn(C[C@H](O)C(=O)NCCCN3CCCC3=O)c2)c1 [Example 6.10, (2S)-2-hydroxy-3-[4-(3-methyl-5-{[4-(trifluorometh-yl)pyrimidin-2-yl]amino}phenyl)-1H-pyrazol-1-yl]-N-[3-(2-oxopyrrolidin-1-yl)propyl]propan-amide] | 6.00 to 7.00 | 
Cc1cc(Nc2nccc(C(F)F)n2)cc(-c2cnn(CCNC(=O)NC(C)(C)C)c2)c1 [Example 27.15, 1-tert-butyl-3-{2-[4-(3-{[4-(difluoromethyl)pyrimidin-2-yl]amino}-5-methylphenyl)-1H-pyrazol-1-yl]ethyl}urea] | ≥ 7.00 | 

SMILES | pIC50 [1] | pIC50 (read-out: rhSYK IC50)
Cc1cc(Nc2nccc(C(F)F)n2)cc(-c2cnn(CC3OC(=O)NC3C3CC3)c2)c1 (single isomer, unassigned) [Example 23.18, 4-cyclopropyl-5-{[4-(3-{[4-(difluoromethyl)pyrimidin-2-yl]amino}-5-methylphenyl)-1H-pyrazol-1-yl]methyl}-1,3-oxazolidin-2-one] | ≥ 7.00 | 
CCOC(=O)CCc1cnn(-c2cc(C)cc(Nc3nccc(C(F)(F)F)n3)c2)c1 [Example 19.2, Ethyl 3-[1-(3-methyl-5-{[4-(trifluoromethyl)-pyrimidin-2-yl]amino}phenyl)-1H-pyrazol-4-yl]propanoate] | 6.00 to 7.00 | 
Cc1cc(Nc2cc(C(F)(F)F)ccn2)nc(-c2cnn(C(=O)OC(C)(C)C)c2)c1 [Example 1.11, tert-butyl 4-(4-methyl-6-{[4-(trifluoromethyl)-pyridin-2-yl]amino}-pyridin-2-yl)-1H-pyrazole-1-carboxylate] | ≥ 7.00 | 
Cc1cc(Nc2nccc(C(F)F)n2)cc(-c2cnn(CC(C)(O)CO)c2)c1 (single isomer, unassigned) [Example 25.3, 3-[4-(3-{[4-(difluoromethyl)pyrimidin-2-yl]amino}-5-methylphenyl)-1H-pyrazol-1-yl]-2-methylpropane-1,2-diol] | ≥ 7.00 | 
Cc1cc(Nc2nccc(C(F)(F)F)n2)cc(-c2cnn(CC(C)(O)C(N)=O)c2)c1 (single isomer, unassigned) [Example 8.14, 2-hydroxy-2-methyl-3-[4-(3-methyl-5-{[4-(trifluorometh-yl)pyrimidin-2-yl]amino}phenyl)-1H-pyrazol-1-yl]propanamide] | ≥ 7.00 | 
Cc1cc(Nc2nccc(C3CC3)n2)cc(-c2cnn(CCC(N)=O)c2)c1 [Example 2.14, 3-(4-{3-[(4-cyclopropylpyrimidin-2-yl)amino]-5-methylphenyl}-1H-pyrazol-1-yl)propanamide] | ≥ 7.00 | 
Cc1cc(Nc2nccc(C)n2)cc(-c2cnn(C(C)(C)C(N)=O)c2)c1 [Example 8.10, 2-methyl-2-(4-{3-methyl-5-[(4-methyl-pyrimidin-2-yl)amino]-phenyl}-1H-pyrazol-1-yl)propanamide] | 6.00 to 7.00 | 
Cc1cc(Nc2nccc(C(F)(F)F)n2)cc(-c2cnn(C(C)C(O)C(N)=O)c2)c1 (centres unmarked) [Example 7.6, 2-hydroxy-3-[4-(3-methyl-5-{[4-(trifluorometh-yl)pyrimidin-2-yl]amino}-phenyl)-1H-pyrazol-1-yl]butanamide] | ≥ 7.00 | 
Cc1cc(Nc2nccc(C(F)F)n2)cc(-c2cnn(C(C[C@H](C)O)[C@H](C)O)c2)c1 (stereo in doubt) [Example 2.51, 3-[4-(3-{[4-(difluoromethyl)pyrimidin-2-yl]amino}-5-methylphenyl)-1H-pyrazol-1-yl]hexane-2,5-diol] | ≥ 7.00 | 
Cc1cc(Nc2nccc(C(F)(F)F)n2)cc(-c2cnn(CC(O)C(=O)O)c2)c1 (racemic) [Example 5.14, 2-hydroxy-3-[4-(3-methyl-5-{[4-(trifluoro-methyl)pyrimidin-2-yl]amino}-phenyl)-1H-pyrazol-1-yl]propanoic acid] | ≥ 7.00 | 
Cc1cc(Nc2nccc(C3CC3)n2)cc(-c2cnn(C[C@H](O)C(N)=O)c2)c1 [Example 6.5, (2S)-3-(4-{3-[(4-cyclopropyl-pyrimidin-2-yl)amino]-5-methylphenyl}-1H-pyrazol-1-yl)-2-hydroxypropan-amide] | ≥ 7.00 | 
Cc1cc(Nc2nccc(C(F)(F)F)n2)cc(-c2cnn(C3CCCC(O)C3O)c2)c1 (single isomer, unassigned) [Example 10.1, (R or S) 3-[4-(3-methyl-5-{[4-(trifluoromethyl)pyrimidin-2-yl]amino}phenyl)-1H-pyrazol-1-yl]cyclohexane-1,2-diol] | ≥ 7.00 | 8.13
Cc1cc(Nc2nccc(C(F)F)n2)cc(-c2cnn(C3CCCC(C)(O)C3O)c2)c1 (centres unmarked) [Example 22.6, 3-[4-(3-{[4-(difluoromethyl)pyrimidin-2-yl]amino}-5-methylphenyl)-1H-pyrazol-1-yl]-1-methylcyclohexane-1,2-diol] | ≥ 7.00 | 8.77
CCOC(=O)CCn1cc(-c2cccc(Nc3nccc(C(F)(F)F)n3)c2)cn1 [Example 2.2, ethyl 3-[4-(3-{[4-(trifluoromethyl)-pyrimidin-2-yl]-amino}phenyl)-1H-pyrazol-1-yl]-propanoate] | 6.00 to 7.00 | 
Cc1cc(Nc2ncc(Cl)c(C)n2)cc(-c2cnn(CC3CNC(=O)O3)c2)c1 (centres unmarked) [Example 2.32, 5-[(4-{3-[(5-chloro-4-methylpyrimidin-2-yl)amino]-5-methylphenyl}-1H-pyrazol-1-yl)methyl]-1,3-oxazolidin-2-one] | ≥ 7.00 | 
